In the Deep4Chem optical property database:

Assay: solvent given as SMILES

Compound: CCCCC1(CCCC)c2cc(C#Cc3ccc4ccc5cccc6ccc3c4c56)ccc2-c2ccc(C#Cc3ccc4ccc5cccc6ccc3c4c56)cc21
- absorption maximum (in C1CCCCC1): 418 nm
- absorption maximum (in C1CCOC1): 421 nm
- absorption maximum (in CC#N): 420 nm
- absorption maximum (in CCOC(C)=O): 419 nm
- absorption maximum (in CN(C)C=O): 427 nm
- absorption maximum (in Cc1ccccc1): 424 nm
- absorption maximum (in ClC(Cl)Cl): 421 nm
- absorption maximum (in ClCCl): 424 nm

Compound: c1ccc(-c2nc(-c3ccc(N(c4ccccc4)c4ccccc4)cc3)n3ccccc23)cc1
- absorption maximum (in C1CCCCC1): 352 nm
- absorption maximum (in CC#N): 350 nm
- absorption maximum (in CO): 348 nm
- absorption maximum (in ClCCl): 353 nm
- absorption maximum (in O): 360 nm

Compound: COc1ccc2c(c1)c1cc(OC)ccc1c1c2c2c(C(=O)NC(C)(C)C)ccc(C(=O)NC(C)(C)C)c2c2c3ccc(OC)cc3c3cc(OC)ccc3c21
- absorption maximum (in ClCCl): 414 nm

Compound: COC(=O)c1cc(=O)n(C)c2cc(-c3ccc(N(C)C)cc3)sc12
- absorption maximum (in CC#N): 428 nm
- absorption maximum (in ClCCl): 434 nm

Compound: c1ccc(-[n+]2c3ccc4cccc5c6cccc7c8cccc9ccc2c(c98)c(c67)c3c45)cc1
- absorption maximum (in ClCCl): 512 nm

Compound: CCOC(=O)c1ccc(O)c(-c2[nH]c(=O)n3c2-c2ccccc2C3=O)c1
- absorption maximum (in CC#N): 391 nm
- absorption maximum (in CO): 395 nm
- absorption maximum (in ClCCl): 399 nm

Compound: CCOC(=O)CSc1nc(-c2ccc(OC)cc2)c(C)c(C#N)c1C#N
- absorption maximum (in c1ccccc1): 374 nm

Compound: O=[N+]([O-])c1ccc(O)c(-c2nc3c(c4c2-c2ccccc2CC4)-c2ccccc2CC3)c1
- absorption maximum (in ClCCl): 342 nm

Compound: S=P1(c2ccccc2)c2cccc3ccc4ccc1n4c23 (configuration not stated)
- absorption maximum (in ClCCl): 407 nm

Compound: CCCn1c(=O)c(/C=C/c2nc3ccc(C)cc3n(CCC)c2=O)nc2ccc(C)cc21
- absorption maximum (in C1COCCO1): 434 nm
- absorption maximum (in CC#N): 431 nm
- absorption maximum (in ClCCl): 434 nm

Compound: COc1ccc(-c2nc(N)nc(C#N)c2C#N)cc1OC
- absorption maximum (in C1COCCO1): 347 nm
- absorption maximum (in CC#N): 359 nm
- absorption maximum (in CC(C)=O): 348 nm
- absorption maximum (in CCO): 350 nm
- absorption maximum (in CCOC(C)=O): 356 nm
- absorption maximum (in CO): 346 nm

Compound: Cc1cccc(C2=Cc3c4ccccc4cc[n+]3[B-](F)(F)O2)c1
- absorption maximum (in ClC(Cl)Cl): 401.5 nm

Compound: O=C(O)c1ccc(-c2ccc(-c3nc(-c4ccccc4)c4ccccn34)cc2)s1
- absorption maximum (in CC#N): 362 nm

Compound: CCCCCCCCCCCCOc1cc2c3c(ccc4c5c(OCCCCCCCCCCCC)cc6c7c(ccc(c1c34)c75)C(=O)N(C1CCCCC1)C6=O)C(=O)N(C1CCCCC1)C2=O
- absorption maximum (in ClC(Cl)Cl): 570 nm

Compound: BrC1=CN2C[n+]3cc(Br)ccc3N=C2C=C1
- absorption maximum (in CO): 434 nm

Compound: Clc1ccc(/C=C(\c2ccccc2)c2nc3ccccc3o2)cc1
- absorption maximum (in C1CCCCC1): 330 nm
- absorption maximum (in CO): 330 nm

Compound: c1ccc2c(c1)ccc1ccc3ccc4ccccc4c3c12
- absorption maximum (in ClC(Cl)Cl): 393 nm

Compound: N#Cc1cc2ccc3cc(C#N)c4ccccc4c3c2c2ccccc12
- absorption maximum (in ClC(Cl)Cl): 422 nm

Compound: F[B-]1(F)n2c(Cl)ccc2C(c2c(Cl)cccc2Cl)=C2C=CC(NCc3ccccc3)=[N+]21
- absorption maximum (in CC#N): 479 nm
- absorption maximum (in CCCCCC): 523 nm
- absorption maximum (in CCOC(C)=O): 497 nm
- absorption maximum (in CO): 488 nm
- absorption maximum (in ClCCl): 505 nm

Compound: COc1cc2c(cc1OC)C1=C[C@H](c3ccc(C)cc3)C3(C(C#N)=C(C#N)N1CC2)c1cc(Br)ccc1-c1ccc(Br)cc13
- absorption maximum (in ClCCl): 315 nm

Compound: COc1ccc(/C=C/c2cc(/C=C/c3ccc(OC)cc3)ncn2)cc1
- absorption maximum (in ClCCl): 359 nm

Compound: CCCCn1c2ccc(-c3ccc(OC)cc3)cc2c2ccc3c4cc(-c5ccc(OC)cc5)ccc4n(CCCC)c3c21
- absorption maximum (in ClC(Cl)Cl): 338 nm

Compound: CCCCC(CC)COc1ccc2nc(-c3ccc(-c4ccccc4)s3)sc2c1 (configuration not stated)
- absorption maximum (in ClCCl): 368 nm

Compound: Nc1ccc(-c2ccc(N)cc2)cc1
- absorption maximum (in C1CCOC1): 306 nm
- absorption maximum (in C1COCCO1): 289 nm
- absorption maximum (in CC#N): 286 nm
- absorption maximum (in CCCCCC): 279 nm
- absorption maximum (in CCOC(C)=O): 285 nm
- absorption maximum (in CN(C)C=O): 299 nm
- absorption maximum (in CO): 281 nm
- absorption maximum (in CS(C)=O): 292 nm
- absorption maximum (in Cc1ccccc1): 295 nm
- absorption maximum (in ClC(Cl)Cl): 305 nm
- absorption maximum (in ClCCl): 286 nm
- absorption maximum (in O): 281 nm

Compound: CCC(C)(C)c1ccc(-c2ccc(-c3ccccc3)cc2)cc1
- absorption maximum (in C1COCCO1): 287 nm

Compound: O=c1oc2cc3ccccc3cc2nc1-c1ccccc1
- absorption maximum (in CC#N): 348 nm
- absorption maximum (in CCCCCC): 350 nm
- absorption maximum (in CO): 346 nm
- absorption maximum (in c1ccccc1): 356 nm

Compound: O=C1c2ccccc2-c2ccccc21
- absorption maximum (in C1CCCCC1): 382 nm
- absorption maximum (in CC#N): 377 nm
- absorption maximum (in CCO): 379 nm
- absorption maximum (in c1ccccc1): 380 nm

Compound: Cn1nc(-c2ccccc2)cc1-c1ccccc1
- absorption maximum (in ClCCl): 254 nm

Compound: Cc1cc(C)c2nc3[nH]c(=O)[nH]c(=O)c3nc2c1
- absorption maximum (in CC#N): 388 nm

Compound: N#Cc1ccc(/C=C2\N=C(c3ccccc3)NC2=O)cc1
- absorption maximum (in C1COCCO1): 393 nm

Compound: COc1ccc2c(c1)c1c(OC)c3ccccc3c(OC)c1n2C
- absorption maximum (in C1CCCCC1): 421 nm
- absorption maximum (in CC#N): 422 nm
- absorption maximum (in CO): 421 nm
- absorption maximum (in ClCCl): 425 nm
